This assay concerns highly tumor reactive A2/Melan-A multimer+ CD8+ T cell clones. To be noted: 4 h.

The results in this text go back to paper PMC2193921 (The Journal of Experimental Medicine, 2002).

By IC50 is commonly meant the concentration at which inhibition is half-maximal. With `CC[C@H](C)[C@H](NC(=O)CNC(=O)[C@H](C)NC(=O)[C@H](C)N)C(=O)NCC(=O)N[C@H](C(=O)N[C@@H](CC(C)C)C(=O)N[C@H](C(=O)N[C@H](C(=O)O)C(C)C)[C@@H](C)O)[C@@H](C)CC` [Melan-A 27–35], the IC50 was about 1 nM.
